What was measured:
MDA-MB-468 [1] = test: Antitumor activity against human MDA-MB-468 cells xenografted in CB-17 SCID mouse assessed as reduction in tumor size at 50 mg/kg, ip qd for 21 days; assay type: functional; conditions: MDA-MB-468, ip, 504 h, route intraperitoneal, read-out: TGI
HCC1954 = test: Antiproliferative activity against human HCC1954 cells assessed as growth inhibition after 5 days by SRB assay; assay type: functional; conditions: HCC1954, 120 h
Cytochrome P450 3A4 = Cytochrome P450 3A4 (Homo sapiens, UniProt P08684); test: Inhibition of CYP3A4 (unknown origin) after 10 mins by fluorescence assay; assay type: ADME
[2] = AUC in SCID mouse at 50 mg/kg, ip; assay type: ADME, organism-based; set-up: dose 50 mg/kg, route intraperitoneal; conditions: plasma
MCF7 = test: Antiproliferative activity against human MCF7 cells assessed as growth inhibition after 5 days by SRB assay; assay type: functional; conditions: MCF7, 120 h
[3] = molecular target: Serine/threonine-protein kinase PLK2 (Homo sapiens, UniProt Q9NYY3); test: Inhibition of PLK2 (unknown origin) by FRET-based homogeneous assay
Aurora kinase B = Aurora kinase B (Homo sapiens, UniProt Q96GD4); test: Inhibition of aurora B (unknown origin) by FRET-based homogeneous assay
Cytochrome P450 2D6 = Cytochrome P450 2D6 (Homo sapiens, UniProt P10635); test: Inhibition of CYP2D6 (unknown origin) using AMMC as substrate after 30 mins by fluorescence assay; assay type: ADME
MDA-MB-468 [4] = test: Antiproliferative activity against human MDA-MB-468 cells assessed as growth inhibition after 5 days by SRB assay; assay type: functional; conditions: MDA-MB-468, 120 h
[5] = molecular target: Serine/threonine-protein kinase PLK1 (Homo sapiens, UniProt P53350); test: Inhibition of PLK1 (unknown origin) by FRET-based homogeneous assay
[6] = Plasma protein binding in mouse at […] after 4 hrs by equilibrium dialysis method; assay type: ADME, cell-free; conditions: read-out: PPB
Cytochrome P450 2C9 = Cytochrome P450 2C9 (Homo sapiens, UniProt P11712); test: Inhibition of CYP2C9 (unknown origin) using MFC as substrate after 45 mins by fluorescence assay; assay type: ADME
Mus musculus = test: Toxicity in human MDA-MB-468 cells xenografted CB-17 SCID mouse assessed as reduction in body weight at 25 mg/kg, ip qd for 21 days; assay type: organism-based; set-up: dose 25 mg/kg, route intraperitoneal; conditions: in vivo, 504 h
[7] = molecular target: Vascular endothelial growth factor receptor 2 (Homo sapiens, UniProt P35968); test: Inhibition of KDR (unknown origin) by FRET-based homogeneous assay
SK-BR-3 = test: Antiproliferative activity against human SKBR3 cells assessed as growth inhibition after 5 days by SRB assay; assay type: functional; conditions: SK-BR-3, 120 h
Aurora kinase A = molecular target: T1, Aurora kinase A (Homo sapiens, UniProt O14965); test: Inhibition of aurora A (unknown origin) by FRET-based homogeneous assay
T1 sequence (O14965 whole entry): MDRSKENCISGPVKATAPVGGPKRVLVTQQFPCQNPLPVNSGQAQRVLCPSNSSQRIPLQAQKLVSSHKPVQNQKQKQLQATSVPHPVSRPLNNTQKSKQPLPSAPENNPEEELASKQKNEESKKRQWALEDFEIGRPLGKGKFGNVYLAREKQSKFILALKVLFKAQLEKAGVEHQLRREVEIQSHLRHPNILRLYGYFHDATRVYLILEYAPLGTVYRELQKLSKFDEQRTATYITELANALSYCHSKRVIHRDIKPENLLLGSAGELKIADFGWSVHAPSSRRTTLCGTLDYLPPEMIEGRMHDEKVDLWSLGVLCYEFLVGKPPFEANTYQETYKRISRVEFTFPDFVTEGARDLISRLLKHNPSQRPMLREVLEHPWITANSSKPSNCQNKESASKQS

[8] = molecular target: T2, Receptor-type tyrosine-protein kinase FLT3 (Homo sapiens, UniProt P36888); test: Inhibition of FLT3 (unknown origin) by FRET-based homogeneous assay
T2 sequence (P36888 whole entry): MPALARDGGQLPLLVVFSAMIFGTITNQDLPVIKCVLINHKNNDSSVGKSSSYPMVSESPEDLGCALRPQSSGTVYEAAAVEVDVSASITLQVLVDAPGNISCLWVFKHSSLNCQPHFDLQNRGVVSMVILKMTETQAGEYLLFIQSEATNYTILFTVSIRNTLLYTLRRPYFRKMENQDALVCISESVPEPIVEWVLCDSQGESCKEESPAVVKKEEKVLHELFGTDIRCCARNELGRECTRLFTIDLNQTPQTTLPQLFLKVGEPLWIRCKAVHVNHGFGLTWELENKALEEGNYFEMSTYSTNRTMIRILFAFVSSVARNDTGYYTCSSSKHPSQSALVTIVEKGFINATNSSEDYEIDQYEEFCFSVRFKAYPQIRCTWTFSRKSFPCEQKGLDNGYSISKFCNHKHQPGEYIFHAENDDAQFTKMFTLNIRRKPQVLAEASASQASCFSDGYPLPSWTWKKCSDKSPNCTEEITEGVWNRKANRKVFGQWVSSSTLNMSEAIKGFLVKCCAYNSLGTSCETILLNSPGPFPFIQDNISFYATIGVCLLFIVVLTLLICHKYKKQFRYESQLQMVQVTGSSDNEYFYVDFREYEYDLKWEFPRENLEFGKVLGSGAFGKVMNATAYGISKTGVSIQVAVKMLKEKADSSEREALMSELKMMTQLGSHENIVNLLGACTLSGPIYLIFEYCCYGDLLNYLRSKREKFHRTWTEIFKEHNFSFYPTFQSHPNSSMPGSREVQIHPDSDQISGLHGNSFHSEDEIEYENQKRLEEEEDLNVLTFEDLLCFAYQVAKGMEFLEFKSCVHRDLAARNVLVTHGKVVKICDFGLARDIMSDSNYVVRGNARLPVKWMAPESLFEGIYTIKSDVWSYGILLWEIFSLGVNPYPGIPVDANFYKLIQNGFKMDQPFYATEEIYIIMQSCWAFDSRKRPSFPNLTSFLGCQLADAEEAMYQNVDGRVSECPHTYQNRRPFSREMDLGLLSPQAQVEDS

MDA-MB-231 = test: Antiproliferative activity against human MDA-MB-231 cells assessed as growth inhibition after 5 days by SRB assay; assay type: functional; conditions: MDA-MB-231, 120 h
Cytochrome P450 2C19 = Cytochrome P450 2C19 (Homo sapiens, UniProt P33261); test: Inhibition of CYP2C19 (unknown origin) using MFC as substrate after 30 mins by fluorescence assay; assay type: ADME
[9] = molecular target: Serine/threonine-protein kinase PLK3 (Homo sapiens, UniProt Q9H4B4); test: Inhibition of PLK3 (unknown origin) by FRET-based homogeneous assay
Serine/threonine-protein kinase PLK3, sequence (Q9H4B4 whole entry): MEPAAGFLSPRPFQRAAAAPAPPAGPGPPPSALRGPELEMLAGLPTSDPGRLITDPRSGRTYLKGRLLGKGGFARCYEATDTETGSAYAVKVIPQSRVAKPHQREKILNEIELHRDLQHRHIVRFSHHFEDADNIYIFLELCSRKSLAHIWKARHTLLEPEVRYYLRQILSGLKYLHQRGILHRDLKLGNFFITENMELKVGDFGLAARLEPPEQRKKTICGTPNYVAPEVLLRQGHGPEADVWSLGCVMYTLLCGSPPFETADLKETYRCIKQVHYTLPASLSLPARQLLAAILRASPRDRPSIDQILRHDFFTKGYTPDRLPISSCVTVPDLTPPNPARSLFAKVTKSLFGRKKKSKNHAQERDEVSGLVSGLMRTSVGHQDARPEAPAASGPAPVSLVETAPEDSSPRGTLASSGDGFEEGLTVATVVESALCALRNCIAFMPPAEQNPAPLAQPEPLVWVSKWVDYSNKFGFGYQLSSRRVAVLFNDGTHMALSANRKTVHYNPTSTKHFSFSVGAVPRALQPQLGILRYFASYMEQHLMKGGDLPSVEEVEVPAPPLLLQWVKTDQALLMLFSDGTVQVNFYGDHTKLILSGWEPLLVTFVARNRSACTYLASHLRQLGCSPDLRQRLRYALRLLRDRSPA

Aurora kinase B, sequence (Q96GD4 whole entry): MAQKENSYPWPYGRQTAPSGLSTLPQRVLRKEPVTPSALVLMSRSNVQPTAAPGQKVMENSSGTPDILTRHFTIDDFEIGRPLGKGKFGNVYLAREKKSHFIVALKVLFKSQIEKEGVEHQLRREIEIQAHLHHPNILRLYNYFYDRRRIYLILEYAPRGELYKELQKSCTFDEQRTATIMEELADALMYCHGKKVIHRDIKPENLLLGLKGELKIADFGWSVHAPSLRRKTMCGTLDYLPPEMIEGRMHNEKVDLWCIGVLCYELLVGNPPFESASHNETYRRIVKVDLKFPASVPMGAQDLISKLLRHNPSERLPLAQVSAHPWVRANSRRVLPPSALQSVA
Serine/threonine-protein kinase PLK2, sequence (Q9NYY3 whole entry): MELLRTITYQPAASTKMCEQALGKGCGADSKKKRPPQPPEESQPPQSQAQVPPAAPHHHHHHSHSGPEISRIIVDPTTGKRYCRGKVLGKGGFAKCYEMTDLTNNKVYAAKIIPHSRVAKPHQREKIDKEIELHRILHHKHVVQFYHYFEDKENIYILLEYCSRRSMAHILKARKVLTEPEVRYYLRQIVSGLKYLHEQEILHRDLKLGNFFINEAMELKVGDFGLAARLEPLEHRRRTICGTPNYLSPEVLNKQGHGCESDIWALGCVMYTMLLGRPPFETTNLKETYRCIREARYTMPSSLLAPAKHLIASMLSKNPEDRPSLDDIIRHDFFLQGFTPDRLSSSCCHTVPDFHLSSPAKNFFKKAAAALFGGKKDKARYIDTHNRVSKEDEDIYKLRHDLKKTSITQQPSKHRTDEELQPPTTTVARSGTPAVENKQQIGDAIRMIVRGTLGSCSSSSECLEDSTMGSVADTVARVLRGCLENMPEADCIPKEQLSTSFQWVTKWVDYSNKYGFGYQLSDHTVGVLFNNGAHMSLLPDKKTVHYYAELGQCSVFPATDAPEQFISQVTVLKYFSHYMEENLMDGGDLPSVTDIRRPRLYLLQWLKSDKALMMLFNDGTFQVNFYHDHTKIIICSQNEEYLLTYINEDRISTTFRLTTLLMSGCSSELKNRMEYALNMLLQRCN
Cytochrome P450 2C19, sequence (P33261 whole entry): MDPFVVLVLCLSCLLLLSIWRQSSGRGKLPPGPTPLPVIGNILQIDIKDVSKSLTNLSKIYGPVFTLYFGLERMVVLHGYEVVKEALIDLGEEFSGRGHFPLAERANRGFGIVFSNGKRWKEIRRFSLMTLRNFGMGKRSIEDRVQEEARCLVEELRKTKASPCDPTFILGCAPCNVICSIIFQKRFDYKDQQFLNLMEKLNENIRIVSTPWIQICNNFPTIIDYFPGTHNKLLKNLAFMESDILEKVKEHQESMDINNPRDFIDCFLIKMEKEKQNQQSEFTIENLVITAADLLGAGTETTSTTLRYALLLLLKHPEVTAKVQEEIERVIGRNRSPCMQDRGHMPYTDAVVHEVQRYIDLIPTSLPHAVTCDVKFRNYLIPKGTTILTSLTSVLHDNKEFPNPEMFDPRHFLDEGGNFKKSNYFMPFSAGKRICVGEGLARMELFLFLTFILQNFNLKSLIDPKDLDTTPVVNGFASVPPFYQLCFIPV
Cytochrome P450 2C9, sequence (P11712 whole entry): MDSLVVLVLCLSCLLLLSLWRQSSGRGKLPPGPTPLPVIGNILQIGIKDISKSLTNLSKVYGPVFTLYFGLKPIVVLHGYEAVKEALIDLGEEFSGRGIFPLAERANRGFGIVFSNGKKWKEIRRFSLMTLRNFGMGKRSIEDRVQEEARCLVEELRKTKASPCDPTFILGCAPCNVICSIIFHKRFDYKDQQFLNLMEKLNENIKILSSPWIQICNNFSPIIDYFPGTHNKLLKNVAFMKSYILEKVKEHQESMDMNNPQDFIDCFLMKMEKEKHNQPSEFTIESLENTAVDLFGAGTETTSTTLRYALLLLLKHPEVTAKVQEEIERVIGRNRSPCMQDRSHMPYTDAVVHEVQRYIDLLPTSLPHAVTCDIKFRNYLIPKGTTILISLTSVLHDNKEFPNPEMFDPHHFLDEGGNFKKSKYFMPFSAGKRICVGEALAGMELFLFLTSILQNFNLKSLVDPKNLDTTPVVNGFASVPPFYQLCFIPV
Serine/threonine-protein kinase PLK1, sequence (P53350 whole entry): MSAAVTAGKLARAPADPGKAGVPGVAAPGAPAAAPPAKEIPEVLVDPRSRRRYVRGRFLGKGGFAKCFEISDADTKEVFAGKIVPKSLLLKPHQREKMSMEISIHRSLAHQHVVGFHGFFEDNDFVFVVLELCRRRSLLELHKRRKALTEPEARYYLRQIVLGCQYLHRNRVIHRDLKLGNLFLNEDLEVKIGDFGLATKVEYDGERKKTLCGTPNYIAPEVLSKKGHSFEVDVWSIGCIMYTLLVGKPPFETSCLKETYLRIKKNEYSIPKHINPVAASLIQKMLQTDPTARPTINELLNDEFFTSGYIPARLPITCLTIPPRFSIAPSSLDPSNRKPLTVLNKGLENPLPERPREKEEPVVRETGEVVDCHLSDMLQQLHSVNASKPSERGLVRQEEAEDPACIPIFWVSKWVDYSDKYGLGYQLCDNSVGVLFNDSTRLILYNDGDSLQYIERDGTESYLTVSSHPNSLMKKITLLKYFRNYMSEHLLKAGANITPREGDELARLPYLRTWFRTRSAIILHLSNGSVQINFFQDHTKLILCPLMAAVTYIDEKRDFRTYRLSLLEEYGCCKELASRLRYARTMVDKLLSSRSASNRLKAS
Cytochrome P450 2D6, sequence (P10635 whole entry): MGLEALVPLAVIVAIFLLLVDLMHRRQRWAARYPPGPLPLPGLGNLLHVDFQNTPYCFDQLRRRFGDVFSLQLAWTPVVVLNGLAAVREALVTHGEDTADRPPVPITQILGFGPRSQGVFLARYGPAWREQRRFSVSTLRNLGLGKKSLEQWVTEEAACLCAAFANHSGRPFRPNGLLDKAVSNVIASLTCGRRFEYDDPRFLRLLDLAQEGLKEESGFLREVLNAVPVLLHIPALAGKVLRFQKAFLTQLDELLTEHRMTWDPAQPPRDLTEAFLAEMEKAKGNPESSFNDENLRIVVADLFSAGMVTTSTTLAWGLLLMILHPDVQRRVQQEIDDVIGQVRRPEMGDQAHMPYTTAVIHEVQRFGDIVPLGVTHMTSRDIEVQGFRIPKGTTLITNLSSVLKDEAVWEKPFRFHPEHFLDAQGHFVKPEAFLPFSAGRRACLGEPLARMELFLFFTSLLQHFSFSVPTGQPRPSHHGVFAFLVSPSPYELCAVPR
Cytochrome P450 3A4, sequence (P08684 whole entry): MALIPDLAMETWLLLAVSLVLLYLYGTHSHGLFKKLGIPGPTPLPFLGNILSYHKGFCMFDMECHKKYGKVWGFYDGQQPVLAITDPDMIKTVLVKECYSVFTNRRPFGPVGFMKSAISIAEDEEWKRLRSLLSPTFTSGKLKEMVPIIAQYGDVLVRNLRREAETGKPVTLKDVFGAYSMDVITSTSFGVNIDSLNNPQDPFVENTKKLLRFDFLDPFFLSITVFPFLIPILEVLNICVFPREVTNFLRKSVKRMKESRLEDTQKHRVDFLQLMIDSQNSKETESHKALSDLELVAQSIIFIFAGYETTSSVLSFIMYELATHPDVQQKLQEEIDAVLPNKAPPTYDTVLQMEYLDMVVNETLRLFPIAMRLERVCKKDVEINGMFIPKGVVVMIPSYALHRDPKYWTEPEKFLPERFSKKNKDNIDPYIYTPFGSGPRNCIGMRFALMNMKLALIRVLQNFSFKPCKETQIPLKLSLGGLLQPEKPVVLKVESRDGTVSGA

GI50 (HCC1954): 2300 nM | IC50 (Cytochrome P450 3A4): 10000 nM | AUC [2]: 190 ng·h/mL | GI50 (MCF7): 10 nM | IC50 [3]: > 10000 nM | IC50 (Aurora kinase B): 210 nM | IC50 (Cytochrome P450 2D6): > 10000 nM | GI50 (MDA-MB-468 [4]): < 10 nM | IC50 [5]: > 10000 nM | fraction unbound at 4 h [6]: 0.01 | IC50 (Cytochrome P450 2C9): 800 nM | IC50 [7]: 480 nM | GI50 (SK-BR-3): 2300 nM | IC50 (Aurora kinase A): 370 nM | IC50 [8]: 180 nM | GI50 (MDA-MB-231): < 10 nM | IC50 (Cytochrome P450 2C19): 1600 nM | IC50 [9]: > 10000 nM
SMILES: COc1ccc2c(c1)/C(=C\c1ccc3c(/C=C/c4ccc(N5CCN(C)CC5)nc4)n[nH]c3c1)C(=O)N2
inhibition in vivo at 50 mg/kg (MDA-MB-468 [1]): 120% | Activity (Mus musculus): Non-toxic
